A word on the EC50: it is the midpoint of the concentration-response curve.

Each structure is given as a SMILES string.

This assay addresses T1, human IL-17AA (Homo sapiens, UniProt Q16552).
T1 construct: host or cells: HEK (human embryonic kidney) cells
T1 sequence (Q16552 24-155) 1: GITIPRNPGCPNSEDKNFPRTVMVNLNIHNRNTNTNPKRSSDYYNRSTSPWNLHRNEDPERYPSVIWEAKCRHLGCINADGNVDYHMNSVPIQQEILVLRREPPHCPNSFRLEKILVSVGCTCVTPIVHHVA
T1 sequence (Q16552 24-155) 2: T1 sequence (Q16552 24-155) 1
The assay can be described thus: IL-8 release assay in human epithelial keratinocytes adult (HEKa). The note with it: 3 ng/ml human IL-17AA + 10 ng/ml human TNFalpha, 68-72 h, IL-8 by HTRF, read-out: Rel EC50 L-8 release assay. Type of assay: cell-based. The procedure: Example: IL-8 release assay in human epithelial keratinocytes adult (HEKa) Keratinocytes were seeded at 3500 cells/well in 384-well ViewPlates (Perkin Elmer) in Epilife medium (Thermo Fisher) containing human keratinocyte growth supplement (HKGS) without hydrocortisone and incubated in a humid incubator at 37° C., 5% CO2, overnight. The following day growth medium was removed and 25 μl fresh Epilife 10 medium added. 75 nl test compound in 100% DMSO was added into each well reserved
for test compounds, by the use of acoustic pipetting. The remaining wells received an equal volume of DMSO only, as vehicle control, or terfenadine in DMSO, as a positive control for any cytotoxic compounds. Subsequently, another 25 μl Epilife medium was added to each well. Finally, wells containing test compounds and wells prepared to yield 15 maximum stimulation received 25 μl of 9 ng/ml recombinant, human embryonic kidney cell (HEK)-derived human IL-17AA+30 ng/ml human TNF-alpha, in Epilife medium. Wells prepared to define 100% inhibition of IL-17 effects received 25 μl of 30 ng/ml human TNF-alpha alone, in Epilife medium. Final concentrations were 3 ng/ml HEKhuman IL-17AA+10 ng/ml human TNFalpha (maximum stimulation) and 10 ng/ml 20 human TNFalpha alone (100% inhibition, Emax), respectively. Cells were incubated for 68-72 h in the incubator. IL-8 released from the cells was measured by the use of a commercial homogenous time-resolved fluorescence (HTRF) assay (CisBio). 2 μl cell culture supernatant was transferred to a 384-well Proxiplate. 5 μl HTRF reagent was added and the plates incubated sealed in the dark for 3-22 h at room temperature. Time resolved fluorescence was read at 665 vs 620 nm, with excitation at 320 nm, and IL-8 levels calculated as percent of controls. Reduction of the amount of secreted IL-8 indicates decreased IL-17 signaling. Concentration response curves were fitted by the use of a four-parameter logistic equation. Relative IC50 and Emax were reported from 5 curves showing acceptable fit (r2>0.9). Cytotoxicity was measured in the cell-containing
Compounds of the present invention were tested in the IL-8 release assay in human epithelial keratinocytes.
With `CC(C)n1cc(-c2ccc(Cl)c(C[C@H](NC(=O)C(C)(F)F)C(=O)Nc3ccc(-c4nncn4C)cc3)c2)ccc1=O` [Example 283, N-[(1S)-1-[[2-chloro-5-(1-isopropyl-6-oxo-3-pyridyl)phenyl]methyl]-2-[4-(4-methyl-1,2,4-triazol-3-yl)anilino]-2-oxo-ethyl]-2,2-difluoro-propanamide], the EC50 is greater than 1000 nM. The same measure for `Cc1n[nH]c(C)c1-c1ccc(NC(=O)[C@@H](NC(=O)c2ccnn2C)[C@@H]2CCCc3ccc(-c4ccnc(N5C[C@H]6C[C@@H]5CO6)c4)cc32)cc1` [Example 394, N-[(1S)-2-[4-(3,5-dimethyl-1H-pyrazol-4-yl)anilino]-1-[(1R)-7-[2-[(1R,4R)-2-oxa-5-azabicyclo[2.2.1]heptan-5-yl]-4-pyridyl]tetralin-1-yl]-2-oxo-ethyl]-2-methyl-pyrazole-3-carboxamide]: less than 100 nM; for `Cc1cnn(C)c1-c1ccc(NC(=O)[C@H](Cc2cc(-c3ccc(=O)n(C(C)C)c3)ccc2Cl)NC(=O)CC2CCC2)cc1` [Example 335, (2S)-3-[2-chloro-5-(1-isopropyl-6-oxo-3-pyridyl)phenyl]-2-[(2-cyclobutylacetyl)amino]-N-[4-(2,4-dimethylpyrazol-3-yl)phenyl]propanamide]: 100 to 1000 nM; for `Cc1[nH]nnc1-c1ccc(NC(=O)C(Cc2cc(-c3ccc(=O)n(C(C)C)c3)ccc2Cl)NC(=O)c2ccnn2C)cc1` (stereo not drawn) [Example 98, N-[1-[[2-chloro-5-(1-isopropyl-6-oxo-3-pyridyl)phenyl]methyl]-2-[4-(5-methyl-1H-triazol-4-yl)anilino]-2-oxo-ethyl]-2-methyl-pyrazole-3-carboxamide]: 100 to 1000 nM. Turning to `CC(C)Oc1cccc(-c2ccc(Cl)c(CC(NC(=O)c3ccnn3C)C(=O)Nc3ccc(-c4nncn4C)cc3)c2)c1` (stereo not drawn) [Example 122, N-[1-[[2-chloro-5-(3-isopropoxyphenyl)phenyl]methyl]-2-[4-(4-methyl-1,2,4-triazol-3-yl)anilino]-2-oxo-ethyl]-2-methyl-pyrazole-3-carboxamide], the EC50 was in the range of 100 to 1000 nM. To `CC(C)n1cc(-c2ccc(Cl)c(CC(NC(=O)c3ccnn3C)C(=O)Nc3ccc(-c4cncn4C)cc3)c2)ccc1=O` (stereo not drawn) [Example 79, N-[1-[[2-chloro-5-(1-isopropyl-6-oxo-3-pyridyl)phenyl]methyl]-2-[4-(3-methylimidazol-4-yl)anilino]-2-oxo-ethyl]-2-methyl-pyrazole-3-carboxamide] belongs 100 to 1000 nM; to `Cn1cncc1-c1ccc(NC(=O)C(Cc2cc(-c3ccnc(N4CC[C@H](O)C4)c3)ccc2Cl)NC(=O)c2ccnn2C)cc1` (stereo partly drawn) [Example 191, N-[1-[[2-chloro-5-[2-[(3S)-3-hydroxypyrrolidin-1-yl]-4-pyridyl]phenyl]methyl]-2-[4-(3-methylimidazol-4-yl)anilino]-2-oxo-ethyl]-2-methyl-pyrazole-3-carboxamide], 100 to 1000 nM.

`CC(C)n1cc(-c2ccc(Cl)c(C[C@H](NC(=O)c3ccnn3C)C(=O)Nc3ccc(-c4cn[nH]c4)c(O)c3)c2)ccc1=O` [Example 175, N-[(1S)-1-[[2-chloro-5-(1-isopropyl-6-oxo-3-pyridyl)phenyl]methyl]-2-[3-hydroxy-4-(1H-pyrazol-4-yl)anilino]-2-oxo-ethyl]-2-methyl-pyrazole-3-carboxamide]: the EC50 was less than 100 nM. To `C[C@H]1CNCCN1c1cc(-c2ccc(Cl)c(C[C@H](NC(=O)c3ccnn3C)C(=O)Nc3ccc(-c4cncn4C)cc3)c2)ccn1` [Example 208, N-[(1S)-1-[[2-chloro-5-[2-[(2S)-2-methylpiperazin-1-yl]-4-pyridyl]phenyl]methyl]-2-[4-(3-methylimidazol-4-yl)anilino]-2-oxo-ethyl]-2-methyl-pyrazole-3-carboxamide] belongs 100 to 1000 nM.

The values are drawn from patent US20220162191A1, “SMALL MOLECULE MODULATORS OF IL-17” (LEO PHARMA A/S, priority 2019, published 2022).
